In patent publication US7045343B2, “Sterilization indicator test packs” (3M Innovative Properties Company, priority 1998, dated 2006):

Tested on: enzyme associated with Bacillus stearothermophilus spores
Test: Rapid enzyme fluorescence readout of indicators after hydrogen peroxide plasma sterilization
Type: biochemical
Settings: 1–3 hours after exposure
Procedure: Sterilization indicators for Examples 6–9 were prepared as described above with the exception that closure member 22 of the sterilization indicator was constructed of TYVEK™ high-density polyethylene fiber material, commercially available from E.I. du Pont de Nemours and Co., Wilmington, Del.
(§1) Sterilization indicators were made as described above with spores that had been coated with each of the chemicals and concentrations listed in Table 6. The indicators were placed in instrument trays and exposed to a hydrogen peroxide plasma sterilization procedure at 45–55° C. in a STERRAD™ 100SI GMP Sterilizer, obtained from Advanced Sterilization Products Co., Irvine, Calif. During the sterilization procedure a vacuum was drawn in the sterilization chamber for 5–6 minutes until the pressure was reduced to 300 mTorr. A 1.8 ml aliquot of an aqueous solution of 58–60% hydrogen peroxide was then injected into the sterilization chamber over a period of about 6 minutes, yielding an empty chamber concentration of […] hydrogen peroxide, and hydrogen peroxide vapor was allowed to diffuse throughout the chamber for 1–22 minutes at 6–10 Torr. A vacuum was then drawn, reducing the pressure to 500 mTorr and removing all detectable hydrogen peroxide vapor from the chamber.
After exposure to the sterilization procedure, the indicators were removed from the sterilizer and the inner containers containing the enzyme substrate and nutrient medium were crushed. The indicators were then incubated at 60° C. and examined for fluorescence every hour for 5 hours using a 3M™ ATTEST™ Model 190 Rapid Autoreader, commercially available from 3M Company, St. Paul, Minn. Additionally, spore growth, as indicated by a color change from purple to yellow, was determined visually after 168 hours of incubation.
The number of growth positive indicators detected after 168 hours of incubation is recorded in Table 6.
as §1, with “7.” for “6.”
as §1, with “8.” for “6.”, “chamber. […]” for “chamber.”

O=CC(=O)C=O [1,2,3-Propantrial]
accuracy of sterilization indicators compared to indicators made with untreated spores: improved
